Laboratory results as given in patent US4439606A, “Antiatherosclerotic 1-piperazinecarbonyl compounds” (American Cyanamid Company, priority 1982, dated 1984).

Columns and labels:
[1] = molecular target: T1, fatty acyl CoA:-cholesterol acyl transferase (ACAT) (Rattus norvegicus, UniProt O70536); assay: Inhibition of enzymatic esterification of cholesterol (ACAT inhibition), rat adrenal supernatant; type: biochemical; details: final concentration 5.2 μg./ml., 37° C., 30 minutes
T1 construct: The supernatant, containing the microsomal fraction, served as the source of the cholesterol-esterifying enzyme; from tissue; host or cells: rat adrenals, 1000 x g supernatant containing the microsomal fraction
T1 sequence (O70536 1-545): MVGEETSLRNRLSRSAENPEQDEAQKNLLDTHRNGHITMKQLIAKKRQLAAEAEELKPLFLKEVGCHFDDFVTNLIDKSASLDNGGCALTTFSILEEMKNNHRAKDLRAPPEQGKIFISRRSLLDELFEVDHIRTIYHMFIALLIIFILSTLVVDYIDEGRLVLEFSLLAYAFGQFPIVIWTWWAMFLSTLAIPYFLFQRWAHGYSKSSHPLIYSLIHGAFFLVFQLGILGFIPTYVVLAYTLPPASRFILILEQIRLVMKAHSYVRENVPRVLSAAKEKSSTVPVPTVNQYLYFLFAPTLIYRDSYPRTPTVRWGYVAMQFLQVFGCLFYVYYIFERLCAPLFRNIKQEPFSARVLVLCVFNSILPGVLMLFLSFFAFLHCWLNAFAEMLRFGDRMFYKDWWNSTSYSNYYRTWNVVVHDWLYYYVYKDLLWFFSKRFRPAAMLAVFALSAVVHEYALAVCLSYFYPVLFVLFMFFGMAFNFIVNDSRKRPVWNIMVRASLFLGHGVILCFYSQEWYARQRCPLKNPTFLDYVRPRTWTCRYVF
Experimental: The compounds of the present invention were tested for their ability to inhibit the enzymatic esterification of cholesterol according to the procedure of Hashimoto, et al., Life Sci., 12(Part II), 1-12 (1973).
Rat adrenals were homogenized in 0.2 M monobasic potassium phosphate buffer, pH 7.4, and centrifuged at 1000 times gravity for 15 minutes at 5° C. The supernatant, containing the microsomal fraction, served as the source of the cholesterol-esterifying enzyme, fatty acyl CoA:-cholesterol acyl transferase (ACAT). A mixture comprising 50 parts of adrenal supernatant, 10 parts of bovine serum albumin (50 mg./ml.), 3 parts of test compound (final concentration 5.2 μg./ml.) and 500 parts of buffer were preincubated at 37° C. for 10 minutes, following which 20 parts of oleoyl […] were added and the final mixture was incubated at 37° C. for 30 minutes. A control mixture, omitting the test compound, was prepared and treated in the same manner. The lipids from the incubation mixture were extracted into an organic solvent and separated by thin-layer chromatography. The cholesterol ester fraction was counted in a scintillation counter. A statistically significant inhibition of the ACAT enzyme is the criterion for activity.

[2] = tested on: serum cholesterol and triglyceride; assay: Lowering of serum lipid levels, oral administration in diet to rats; type: in vivo, male rats COBS, CD, SD strain; details: 0.1% of test compound by weight in diet, 5 days, vs control rats
Experimental: The compounds were also tested for their ability to lower lipid levels in mammals. The compounds were administered orally admixed with diet to groups of four male rats COBS, CD, SD strain from Charles River Breeding Laboratories, Inc., Wilmington, Mass. A control group of eight rats was maintained on the diet alone; test groups were maintained on the diet plus 0.1% of test compound by weight. After 5 days treatment, serum cholesterol and triglyceride concentrations were determined by direct enzymatic procedures using a Centrifichem® System 400 autoanalyzer (Union Carbide Co.). Cholesterol concentrations were determined by the combined cholesterol esterasecholesterol oxidase procedure of Roeschlau, et al., Zeit. Klin. Chem. Klin. Biochem., 12, 226 (1974). Triglycerides were determined by the combined method of lipase catalyzed hydrolysis of triglycerides to glycerol and free fatty acids [Bucolo, G. and David, H., Clin. Chem., 19, 476 (1973) and Wahlefeld, A. W., in "Methods of Enzymatic Analysis," Vol, 4, Bergmeyer, H. D., Editor, Academic Press, New York, N.Y. (1974), pp. 1831-1835] and the enzymatic oxidation of the glycerol which leads to the production of colored formazan [Stavropoulos, W. S. and Crouch, R. D., Clin. Chem., 20, No. 7, 857 (1974)]. […] The compounds are considered active if they produce a statistically significant lowering of either sterol or triglycerides.

[3] = tested on: aortic sterol content; assay: Decrease of aortic sterol content without effecting serum sterol in cholesterol-fed cockerels; type: in vivo, Day-old Cockerels; set-up: key: Active: Compounds which statistically decrease the aortic sterol content without having an effect on serum sterol are considered to be active; details: 525 mg. test compound and 20 g. cholesterol per kg. of diet, 14 days
Experimental: The compounds were further tested for their ability to decrease aortic sterol content without effecting serum sterol.
Day-old Cockerels were placed on diets consisting of pullet starter mash supplemented with either 20 g. cholesterol (control group) or 20 g. cholesterol and 525 mg. test compound (drug-treated group) per kg. of diet.
For the control diet, 20 g. of cholesterol was dissolved in 200 ml. of chloroform, mixed into one kg. of pullet starter mash and then the choloroform was removed by evaporation.
For the drug-treatment group, 525 mg. of the test compound was dissolved in 100 ml. of chloroform, mixed into a diet prepared as described above and then the chloroform was evaporated.
The cockerels were housed three per cage and given water and their respective diet ad libitum for 14 days. Blood was collected by cardiac puncture and the serum was saponified [Trinder, P., Analyst, 77, 321 (1952)] and extracted and the cholesterol content determinted [Zlatkis, A., et al., J. Lab Clin Med., 41 486 (1953)]. The aortae were removed, cleaned of adventitial tissue and the sterol content determined according to the above procedures. Compounds which statistically decrease the aortic sterol content without having an effect on serum sterol are considered to be active.

For `O=C(Cc1ccc(Cl)cc1Cl)N1CCN(c2cnccn2)CC1` [1-(2,4-Dichlorophenylacetyl)-4-(2-pyrazinyl)piperazine], the inhibition at 5.2 µg/mL [1] was 32.2% and the “% Lowering of Serum Triglycerides” value [2] was 44%.
`Cc1ccccc1CC(=O)N1CCN(c2cnccn2)CC1` [1-(2-Methylphenylacetyl)-4-(2-pyrazinyl)piperazine] was tested, and the “% Lowering of Serum Triglycerides” value [2] was 55%.
With `CC(Oc1ccccc1)C(=O)N1CCN(c2cnccn2)CC1` (stereo not shown) [1-(2-Phenoxypropionyl)-4-(2-pyrazinyl)piperazine] the inhibition at 5.2 µg/mL [1] was 30.5% and the “% Lowering of Serum Triglycerides” value [2] was 62%.
`O=C(c1cccnc1)N1CCN(c2cnccn2)CC1` [1-(2-Pyrazinyl)-4-(3-pyridylcarbonyl)piperazine] was tested, and the “% Lowering of Serum Triglycerides” value [2] was 30%.
With `Cc1cccc(CC(=O)N2CCN(c3cnccn3)CC2)c1` [1-(2-Pyrazinyl)-4-(m-tolylacetyl)piperazine] the “% Lowering of Serum Triglycerides” value [2] was 40%.
`Cc1ccc(CC(=O)N2CCN(c3cnccn3)CC2)cc1` [1-(2-Pyrazinyl)-4-(p-tolylacetyl)piperazine] was tested, and the “% Lowering of Serum Triglycerides” value [2] was 49% and the “Result (decrease of aortic sterol content without effect on serum sterol)” value [3] was “Active”.
In the case of `O=C(c1ccccc1C(F)(F)F)N1CCN(c2cnccn2)CC1` [1-(2-Pyrazinyl)-4-(α,α,α-trifluoro-o-toluoyl)piperazine], the “Result (decrease of aortic sterol content without effect on serum sterol)” value [3] is reported as “Active”.
Work on `Cc1ccccc1CC(=O)N1CCN(c2nccs2)CC1` [1-(2-Thiazolyl)-4-o-tolylacetylpiperazine] yielded an inhibition at 5.2 µg/mL [1] of 32.6%.
`COc1cncc(N2CCN(C(=O)Cc3ccccc3)CC2)n1` [1-(6-Methoxy-2-pyrazinyl)-4-phenylacetylpiperazine] was tested, and the inhibition at 5.2 µg/mL [1] was 38.1% and the “% Lowering of Serum Triglycerides” value [2] was 56%.
In the case of `O=C(N1CCN(c2cnccn2)CC1)C(F)(F)C(F)(F)C(F)(F)C(F)(F)C(F)(F)C(F)(F)C(F)(F)F` [1-(Pentadecafluorooctanoyl)-4-(2-pyrazinyl)piperazine], the inhibition at 5.2 µg/mL [1] is reported as 39%, the “% Lowering of Serum Sterol” value [2] is reported as 47% and the “% Lowering of Serum Triglycerides” value [2] is reported as 74%.
In the case of `O=C(Cc1cccc(Cl)c1)N1CCN(c2cnccn2)CC1` [1-(m-Chlorophenylacetyl)-4-(2-pyrazinyl)piperazine], the “% Lowering of Serum Triglycerides” value [2] is reported as 46%.
With `Cc1ccccc1CC(=O)N1CCN(c2cnccn2)CC1` [1-(o-Methylphenylacetyl)-4-(2-pyrazinyl)piperazine] the “Result (decrease of aortic sterol content without effect on serum sterol)” value [3] was “Active”.
With `CC1CN(C(=O)Cc2ccccc2)CCN1c1ccc(Cl)cc1` (stereo not shown) [1-(p-Chlorophenyl)-2-methyl-4-phenylacetylpiperazine] the inhibition at 5.2 µg/mL [1] was 88.1% and the “% Lowering of Serum Triglycerides” value [2] was 61%.
Work on `O=C(Cc1ccccc1)N1CCN(c2ccc(Cl)cc2)CC1` [1-(p-Chlorophenyl)-4-phenylacetylpiperazine] yielded an inhibition at 5.2 µg/mL [1] of 73.3%.
`O=C(Cc1ccc(Cl)cc1)N1CCN(c2cnccn2)CC1` [1-(p-Chlorophenylacetyl)-4-(2-pyrazinyl)piperazine] was tested, and the “% Lowering of Serum Triglycerides” value [2] was 51%.
Compound `CC(C)(C)c1ccc(C(=O)N2CCN(c3cnccn3)CC2)cc1` [1-(p-tert.-Butylbenzoyl)-4-(2-pyrazinyl)piperazine] has an inhibition at 5.2 µg/mL [1] of 39.7%.
With `O=C(C1CC1)N1CCN(c2cnccn2)CC1` [1-Cyclopropylcarbonyl-4-(2-pyrazinyl)piperazine] the “% Lowering of Serum Triglycerides” value [2] was 37%.
With `O=C(N1CCN(c2cnccn2)CC1)C(F)(F)C(F)(F)C(F)(F)F` [1-Heptafluorobutyroyl-4-(2-pyrazinyl)piperazine] the “% Lowering of Serum Triglycerides” value [2] was 51%.
`O=C(c1c(F)c(F)c(F)c(F)c1F)N1CCN(c2cnccn2)CC1` [1-Pentafluorobenzoyl-4-(2-pyrazinyl)piperazine] showed an inhibition at 5.2 µg/mL [1] of 31.2%.
In the case of `O=C(Cc1ccccc1)N1CCN(c2cnc3ccccc3n2)CC1` [1-Phenylacetyl-4-(2-quinoxalinyl)piperazine], the inhibition at 5.2 µg/mL [1] is reported as 40.1%.
`O=C(Cc1ccccc1)N1CCN(Cc2cccnc2)CC1` [1-Phenylacetyl-4-(3-pyridylmethyl)piperazine] was tested, and the “% Lowering of Serum Triglycerides” value [2] was 34%.
For `CC(C)(Oc1ccc(Cl)cc1)C(=O)N1CCN(c2cnccn2)CC1` [1-[2-(p-Chlorophenoxy)-2-methylpropionyl]-4-(2-pyrazinyl)piperazine], the inhibition at 5.2 µg/mL [1] was 54.1% and the “% Lowering of Serum Triglycerides” value [2] was 42%.
In the case of `O=C(CCCCC(=O)N1CCN(c2cnccn2)CC1)c1ccc(Cl)cc1` [1-[5-(p-Chlorobenzoyl)valeryl]-4-(2-pyrazinyl)piperazine], the inhibition at 5.2 µg/mL [1] is reported as 47.4% and the “% Lowering of Serum Triglycerides” value [2] is reported as 45%.
In the case of `O=C(CCCCCc1ccc(Cl)cc1)N1CCN(c2cnccn2)CC1` [1-[6-(p-Chlorophenyl)hexanoyl]-4-(2-pyrazinyl)piperazine], the inhibition at 5.2 µg/mL [1] is reported as 68.9% and the “% Lowering of Serum Triglycerides” value [2] is reported as 30%.
`O=C(c1ccccc1)N1CCN(c2cnccn2)CC1` [1-benzoyl-4-(2-pyrazinyl)piperazine, 1-Benzoyl-4-(2-pyrazinyl)piperazine] was tested, and the “% Lowering of Serum Triglycerides” value [2] was 30%.
`CCCCCCCC(=O)N1CCN(c2cnccn2)CC1` [1-octanoyl-4-(2-pyrazinyl)piperazine, 1-Octanoyl-4-(2-pyrazinyl)piperazine] gave an inhibition at 5.2 µg/mL [1] of 33.6%.
In the case of `O=C(Cc1ccccc1)N1CCN(c2ccc3ccccc3n2)CC1` [1-phenylacetyl-4-(2-quinolyl)piperazine, 1-Phenylacetyl-4-(2-quinolyl)piperazine], the inhibition at 5.2 µg/mL [1] is reported as 89.7%, the “% Lowering of Serum Sterol” value [2] is reported as 69% and the “% Lowering of Serum Triglycerides” value [2] is reported as 53%.
In the case of `O=C(Nc1c(Cl)cccc1Cl)N1CCN(c2cnccn2)CC1` [2',6'-Dichloro-4-(2-pyrazinyl)-1-piperazinecarboxanilide], the “Result (decrease of aortic sterol content without effect on serum sterol)” value [3] is reported as “Active”.
In the case of `O=C(Nc1ccc(Cl)cc1)N1CCN(c2cnccn2)CC1` [4'-Chloro-4-(2-pyrazinyl)-1-piperazinecarboxanilide], the “% Lowering of Serum Triglycerides” value [2] is reported as 33%.
`CCOC(=O)c1ccc(NC(=O)N2CCN(c3cnccn3)CC2)cc1` [Ethyl-p-[4-(2-pyrazinyl)-1-piperazinecarboxamido]benzoate] gave an inhibition at 5.2 µg/mL [1] of 42.2%.
`CCNC(=O)N1CCN(c2cnccn2)CC1` [N--Ethyl-4-(2-pyrazinyl)-1-piperazinecarboxamide] was tested, and the “% Lowering of Serum Triglycerides” value [2] was 43%.
In the case of `CNC(=O)N1CCN(c2cnccn2)CC1` [N--Methyl-4-(2-pyrazinyl)-1-piperazinecarboxamide], the “% Lowering of Serum Triglycerides” value [2] is reported as 38%.
In the case of `CC(C)(C)NC(=O)N1CCN(c2cnccn2)CC1` [N--tert.-Butyl-4-(2-pyrazinyl)-1-piperazinecarboxamide], the inhibition at 5.2 µg/mL [1] is reported as 35.4%.
`O=C(O)c1ccc(NC(=O)N2CCN(c3cnccn3)CC2)cc1` [p-[4-(2-Pyrazinyl)-1-piperazinecarboxamide]-benzoic acid] was tested, and the inhibition at 5.2 µg/mL [1] was 30.6%.
